Reference: ChEMBL document CHEMBL2095176, “GSK Tuberculosis Screening Data”
Converted amounts (≈) assume the structure as drawn.

Assays:
physchem [1] = conditions: buffer, pH 7.4
Description: GSK_TB: GSK in-house hydrophobicity assay at pH7.4 (logD)

physchem [2] = conditions: octanol/water
Description: GSK_TB: GSK in-house hydrophobicity assay (logP)

[3] = test system: Mycobacterium tuberculosis H37Rv; test: microbe, parasite or virus in culture
Description: GSK_TB: Intracellular minimum inhibitory concentration (MIC) H37Rv assay

physchem [4] = conditions: phosphate buffered saline, pH 7.4

SMILES: Clc1ccc(Nc2nc(-c3ccccn3)cs2)nc1
- logD (physchem [1]): 5.35
- logP (physchem [2]): 6.53
- MIC90 [3]: 5.9 µM (≈ 1.7 µg/mL)

SMILES: COc1ccc(-c2nc(-c3cccc(NC(=O)Cc4ccc(F)cc4)c3)no2)cc1OC
- logD (physchem [1]): 6.37
- logP (physchem [2]): 6.68
- solubility kinetic (physchem [4]): 102 µM (≈ 44.2 µg/mL)
- MIC90 [3]: 3.7 µM (≈ 1.6 µg/mL)

SMILES: Cc1nc2ccccn2c1C(=O)NCc1cccs1
- logD (physchem [1]): 2.92
- logP (physchem [2]): 2.93
- solubility kinetic (physchem [4]): 365 µM (≈ 99 µg/mL)
- MIC90 [3]: 9.02 µM (≈ 2.45 µg/mL)

SMILES: COc1cc2ccccc2cc1C(=O)NCc1cccc(-c2ccccc2OC)c1
- logD (physchem [1]): 7.21
- logP (physchem [2]): 7.58
- solubility kinetic (physchem [4]): 84 µM (≈ 33.4 µg/mL)
- MIC90 [3]: 2.2 µM (≈ 0.874 µg/mL)

SMILES: Cc1cc(NCCc2ccccc2)nc(NC(=N)Nc2ccc(Cl)cc2)n1
- logD (physchem [1]): 4
- logP (physchem [2]): 6.74
- solubility kinetic (physchem [4]): 73 µM (≈ 27.8 µg/mL)
- MIC90 [3]: 2.37 µM (≈ 0.903 µg/mL)

SMILES: N#Cc1nc(-c2ccccc2)oc1S(=O)(=O)c1ccc(Cl)cc1
- logD (physchem [1]): 7.12
- logP (physchem [2]): 7.48
- solubility kinetic (physchem [4]): 1 µM (≈ 0.345 µg/mL)
- MIC90 [3]: 8.9 µM (≈ 3.07 µg/mL)

SMILES: O=C(OCc1c(F)cccc1Cl)c1ccc(-n2ncc(Cl)c(Cl)c2=O)cc1
- solubility kinetic (physchem [4]): 22 µM (≈ 9.41 µg/mL)
- MIC90 [3]: 4.9 µM (≈ 2.09 µg/mL)

SMILES: O=C(c1cc2ccccc2o1)N1CCN(Cc2ccc3c(c2)OCO3)CC1
- logD (physchem [1]): 5.63
- logP (physchem [2]): 5.83
- solubility kinetic (physchem [4]): 171 µM (≈ 62.3 µg/mL)
- MIC90 [3]: 2.7 µM (≈ 0.984 µg/mL)

SMILES: Nc1cccnc1Nc1ccc(Cl)cc1
- solubility kinetic (physchem [4]): 94 µM (≈ 20.6 µg/mL)
- MIC90 [3]: 0.232 µM (≈ 0.0509 µg/mL)

SMILES: COc1ccc2sc(Nc3nc(-c4ccccn4)cs3)nc2c1
- logD (physchem [1]): 5.35
- logP (physchem [2]): 5.34
- solubility kinetic (physchem [4]): 22 µM (≈ 7.49 µg/mL)
- MIC90 [3]: 8.2 µM (≈ 2.79 µg/mL)

SMILES: CCc1ccc(S(=O)(=O)Nc2cc(CN3CCN(CCC(C)C)CC3)ccc2C)cc1.O=C(O)C(F)(F)F.O=C(O)C(F)(F)F
- logD (physchem [1]): 6.28
- logP (physchem [2]): 7.74
- solubility kinetic (physchem [4]): 313 µM
- MIC90 [3]: 4.68 µM

SMILES: CC(=O)N1CCc2cc3nc(C)cc(C)c3cc21
- logD (physchem [1]): 2.64
- logP (physchem [2]): 2.65
- solubility kinetic (physchem [4]): 309 µM (≈ 74.3 µg/mL)
- MIC90 [3]: 3.7 µM (≈ 0.889 µg/mL)

SMILES: O=C(O)C(F)(F)F.c1ccc(C[C@H]2CN(c3nccc(Oc4ccc(-n5ccnc5)cc4)n3)CCN2)cc1
- logD (physchem [1]): 3.58
- logP (physchem [2]): 4.33
- solubility kinetic (physchem [4]): 260 µM
- MIC90 [3]: 1.8 µM

SMILES: Cc1ccc(C2CC(C(F)(F)F)n3ncc(C(=O)NCc4ccc5c(c4)OCO5)c3N2)cc1 (stereo not drawn)
- MIC90 [3]: 5.4 µM (≈ 2.48 µg/mL)

SMILES: Cc1ccc2nc(C)c(C(=O)NCC(C)C)n2c1
- logD (physchem [1]): 3.39
- logP (physchem [2]): 3.41
- solubility kinetic (physchem [4]): 287 µM (≈ 70.4 µg/mL)
- MIC90 [3]: 7.67 µM (≈ 1.88 µg/mL)

SMILES: CCCCc1ccc(C(=O)Nc2nccc3ccccc23)nc1
- logD (physchem [1]): 6.65
- logP (physchem [2]): 6.94
- solubility kinetic (physchem [4]): 98 µM (≈ 29.9 µg/mL)
- MIC90 [3]: 9.23 µM (≈ 2.82 µg/mL)

SMILES: COc1ccc(-c2ccc(Nc3cccc(S(=O)(=O)CCNCCc4cccs4)c3)nc2)cn1
- logD (physchem [1]): 5.63
- logP (physchem [2]): 5.83
- solubility kinetic (physchem [4]): 1 µM (≈ 0.495 µg/mL)
- MIC90 [3]: 7.59 µM (≈ 3.75 µg/mL)

SMILES: O=C(C=Cc1cccs1)N1CCN(Cc2ccc3c(c2)OCO3)CC1
- logD (physchem [1]): 4.97
- logP (physchem [2]): 5.23
- solubility kinetic (physchem [4]): 314 µM (≈ 112 µg/mL)
- MIC90 [3]: 0.3 µM (≈ 0.107 µg/mL)

SMILES: Cl.Cl.O=C(Nc1ccc(NC2=NCCN2)cc1)c1ccc(C(=O)Nc2ccc(NC3=NCCN3)cc2)cc1
- logD (physchem [1]): 0.12
- logP (physchem [2]): 0.918
- solubility kinetic (physchem [4]): 26 µM
- MIC90 [3]: 1.6 µM

SMILES: Nc1cccnc1Nc1ccc(C(F)(F)F)cc1
- logD (physchem [1]): 4.97
- logP (physchem [2]): 5.03
- solubility kinetic (physchem [4]): 328 µM (≈ 83.1 µg/mL)
- MIC90 [3]: 2.24 µM (≈ 0.567 µg/mL)

SMILES: c1csc(-c2nnc(Sc3ccnc(N4CCN(c5ccncc5)CC4)n3)n2CCCN2CCOCC2)c1
- logD (physchem [1]): 2.08
- logP (physchem [2]): 3.12
- solubility kinetic (physchem [4]): 185 µM (≈ 102 µg/mL)
- MIC90 [3]: 3.43 µM (≈ 1.88 µg/mL)

SMILES: FC(F)(F)c1cc(SCc2ccccc2)nc(-c2ccccn2)n1
- logD (physchem [1]): 7.12
- logP (physchem [2]): 7.54
- solubility kinetic (physchem [4]): 1 µM (≈ 0.347 µg/mL)
- MIC90 [3]: 3.3 µM (≈ 1.15 µg/mL)

SMILES: O=C(/C=C/c1ccccc1)N1CCN(Cc2cccc(OCc3ccccc3)c2)CC1
- logD (physchem [1]): 7.21
- logP (physchem [2]): 7.54
- solubility kinetic (physchem [4]): 61 µM (≈ 25.2 µg/mL)
- MIC90 [3]: 8.22 µM (≈ 3.39 µg/mL)

SMILES: CN(C)S(=O)(=O)c1ccc(C(=O)Nc2nnc(-c3ccc(Cl)s3)o2)cc1
- logD (physchem [1]): 2.83
- logP (physchem [2]): 4.69
- solubility kinetic (physchem [4]): 177 µM (≈ 73.1 µg/mL)
- MIC90 [3]: 5.82 µM (≈ 2.4 µg/mL)

SMILES: CNc1nc(SCC(=O)N(C)Cc2ccc(Cl)s2)nc2ccccc12
- logD (physchem [1]): 5.07
- logP (physchem [2]): 5.23
- solubility kinetic (physchem [4]): 56 µM (≈ 22 µg/mL)
- MIC90 [3]: 5.62 µM (≈ 2.21 µg/mL)

SMILES: Cc1occc1C(=O)Nc1nc(-c2ccccn2)nc2ccsc12
- logD (physchem [1]): 4.79
- logP (physchem [2]): 4.93
- solubility kinetic (physchem [4]): 105 µM (≈ 35.3 µg/mL)
- MIC90 [3]: 4 µM (≈ 1.35 µg/mL)

SMILES: O=C(CCCSc1ccccc1)NNC(=O)c1cccs1
- logD (physchem [1]): 3.67
- logP (physchem [2]): 3.77
- solubility kinetic (physchem [4]): 559 µM (≈ 179 µg/mL)
- MIC90 [3]: 8.32 µM (≈ 2.67 µg/mL)

SMILES: COc1ccccc1OCCCCn1c(C2CC2)nc2ccccc21
- logD (physchem [1]): 5.63
- logP (physchem [2]): 5.83
- solubility kinetic (physchem [4]): 167 µM (≈ 56.2 µg/mL)
- MIC90 [3]: 3.4 µM (≈ 1.14 µg/mL)

SMILES: CCc1ccc(C2CC(C(F)(F)F)n3ncc(C(=O)NCc4cccs4)c3N2)cc1 (stereo not drawn)
- logD (physchem [1]): 6.99
- logP (physchem [2]): 7.27
- solubility kinetic (physchem [4]): 1 µM (≈ 0.434 µg/mL)
- MIC90 [3]: 4.37 µM (≈ 1.9 µg/mL)

SMILES: Cn1cc(NC(=O)c2cc(NC(=O)CNC(=N)N)cn2C)cc1C(=O)NCCC(=N)N [NETROPSIN CHLORIDE]
- MIC90 [3]: 6.46 µM

SMILES: Cc1nc2ccccn2c1C(=O)NCc1ccc(Cl)cc1
- logD (physchem [1]): 4.04
- logP (physchem [2]): 4.12
- solubility kinetic (physchem [4]): 405 µM (≈ 121 µg/mL)
- MIC90 [3]: 0.4 µM (≈ 0.12 µg/mL)

SMILES: c1ccc(Cc2nnc(Sc3ccnc(N4CCN(c5ccncc5)CC4)n3)n2CCN2CCOCC2)cc1
- logD (physchem [1]): 2.18
- logP (physchem [2]): 3.12
- solubility kinetic (physchem [4]): 186 µM (≈ 101 µg/mL)
- MIC90 [3]: 7.85 µM (≈ 4.27 µg/mL)

SMILES: c1ccc(SCc2nn3c(-c4ccccc4)nnc3s2)cc1
- logD (physchem [1]): 5.44
- logP (physchem [2]): 5.78
- solubility kinetic (physchem [4]): 1 µM (≈ 0.324 µg/mL)
- MIC90 [3]: 2.69 µM (≈ 0.873 µg/mL)

SMILES: O=C(c1cc2c(s1)CCC2)N1CCN(Cc2ccc3c(c2)OCO3)CC1
- logD (physchem [1]): 6.09
- logP (physchem [2]): 6.34
- solubility kinetic (physchem [4]): 117 µM (≈ 43.3 µg/mL)
- MIC90 [3]: 5.3 µM (≈ 1.96 µg/mL)

SMILES: Cc1ccc(SCCNC(=O)c2c(-c3ccccc3)noc2C)cc1
- logD (physchem [1]): 6.37
- logP (physchem [2]): 6.68
- solubility kinetic (physchem [4]): 50 µM (≈ 17.6 µg/mL)
- MIC90 [3]: 7.76 µM (≈ 2.74 µg/mL)

SMILES: Cc1cc(OCC(=O)Nc2ccccc2)c2cc(Br)ccc2n1
- logD (physchem [1]): 5.25
- logP (physchem [2]): 5.44
- solubility kinetic (physchem [4]): 16 µM (≈ 5.94 µg/mL)
- MIC90 [3]: 3.3 µM (≈ 1.23 µg/mL)
